Results: patent US8895032B2, “Dendritic nano-antioxidants” (Central Michigan University, priority 2009, dated 2014)

System: pBR 322 DNA with Cu2+
Test: Pro-oxidant effect: oxidation of DNA with copper (II) ion
Settings: 10 μM Cu2+, 37° C., 1 h
Protocol: The pro-oxidant effect of compounds 1, 2, and 3 was examined by oxidation of DNA with copper (II) ion. pBR 322 was incubated with 10 μM Cu^2+ at 37° C. for 1 h in the presence of compound 1, 2, or 3 (final concentrations between 0.35 and 45 μM). […] Lane 1 is native DNA, and lanes 2-10 are Cu^2+-oxidized DNA with 0, 45, 23, 11, 5, 3, 1.5, 0.7, and 0.35 μM antioxidant, respectively.
This was performed by co-incubation of DNA (pBR 322), copper (II) ion and antioxidant. […] This ultimately forms DNA-Cu(I)OOH, initiating a free radical cascade by which DNA damage occurs. pBR 322 was incubated with 10 μM Cu^2+ in the presence of antioxidants (0-45 μM) at 37° C. for 1 h and subjected to agarose electrophoresis. […] In FIG. 32, lane 1 is native DNA, and lanes 2-10 are Cu^2+ oxidized DNA with 0, 45, 23, 11, 5, 3, 1.5, 0.7, and 0.35 μM antioxidant, respectively. […] However, it should be noted that physiological concentrations of copper are less than 10-20 μM in plasma and approximately […] for the cation in cells.

Cc1c(C)c2c(c(C)c1O)CCC(C)(C(=O)O)O2 (centres unmarked) [Trolox, 6-hydroxy-2,5,7,8-tetramethylchroman-2-carboxylic acid]
pro-oxidant effect on DNA at the concentrations tested (0.35-45 μM antioxidant): strong pro-oxidant effect equivalent to quercetin
pro-oxidant DNA damage (11-45 μM antioxidant): DNA damage was clearly observed
